The record followed here is patent US20230120205A1, “NERVE CELL DEGENERATION INHIBITOR” (KYOTO UNIVERSITY, priority 2020, published 2023).

The test system of the assay is RAN translation. The assay is described as follows: RAN translation inhibitory activity (poly-GP level by electrochemiluminescence). It counts as cell-based, human. Particulars: two days after addition, poly-GP level vs DMSO; for inhibition at 1 µM / inhibition at 3 µM / inhibition at 10 µM: Homo sapiens, 48 h. How it is done: Next, the effect of the compound used in the present invention on RAN translation was examined. Among the DPRs generated by RAN translation, the poly-GP level was measured by an electrochemiluminescence system (Meso Scale Diagnostics).
ALS7 (C9orf72) cells were seeded on an assay plate in the same procedure as in Experimental Example 1. Four days after seeding, the assay medium containing no Y-27632 was added to the plate, and the cells were cultured until seven days after seeding, and the assay medium (Retinoic Acid, Doxycycline, SAG, Y-27632-free) containing the test compound at a predetermined concentration was added to the plate by medium exchange. Two days after addition of the test compound, the medium was removed, and the cells were lysed in an urea buffer consisting of 8M Urea (Wako, 219-00175), 4% CHAPS (Dojindo, 349-04722) and 30 mM Tris-HCl (pH 8.0, Nippon Gene, 312-90061). The cell lysate was added to a multi-array 384 well plate (Meso Scale Diagnostics, L21XB-4), and the plate was agitated at 700 rpm with a plate shaker (Azwan, DM-301) at room temperature, and then allowed to stand overnight at 4° C. The cell lysate was removed, a blocking buffer consisting of 5% Blocker A (Meso Scale Diagnostics, R93AA-1) and 1×TBS-T {TBS (Bio-Rad, 170-6435) containing 0.05% Tween-20 (Bio-Rad, 170-6531)} was added to the plate, and the plate was agitated at 700 rpm with a plate shaker for 1 hr at room temperature, and then washed three times with a wash buffer consisting of 0.05% Tween-20 and PBS (Wako, 162-18547). C9RANT antibody (Novus Biologicals, NBP2-25018) diluted 10,000-fold with 1×TBS-T containing 1% Blocker A was added to the plate, and the plate was agitated at 700 rpm with a plate shaker for 2 hr at 4° C., and then allowed to stand overnight at 4° C. After washing three times with the wash buffer, SULFO-TAG Goat Anti-Rabbit Antibody (Meso Scale Diagnostics, R32AB-1) diluted 500-fold with 1×TBS-T containing 1% Blocker A was added to the plate, and the plate was agitated at 700 rpm with a plate shaker for 2 hr at room temperature. After washing three times with the wash buffer, 2×MSD Read Buffer T with Surfactant (Meso Scale Diagnostics, R92TC-1) was added to the plate, and the signal derived from the C9RANT antibody was measured by MESO SECTOR S600 (Meso Scale Diagnostics).
The method for detecting the activity of the test compound is as follows.
As a negative control, the cells cultured in the assay medium supplemented with DMSO instead of the test compound were used.
RAN translation inhibitory activity of the test compound=100−X/C×100
X: poly-GP level in the test compound group, C: poly-GP level in the DMSO group

The term inhibition denotes the drop in the measured response relative to a control, in per cent. Read a low inhibition as little suppression. On to `COc1cc(Cl)ccc1-c1ncnc(Nc2cccc(CS(N)(=O)=O)c2)n1` [Compound No. 3, 1-(3-{[4-(4-chloro-2-methoxyphenyl)-1,3,5-triazin-2-yl]amino}phenyl)methanesulfonamide], for which the inhibition at 1 µM (1 μM test compound) was above 1%. This compound also had an inhibition at 3 µM (3 μM test compound) of 1%. Moreover, 10 µM produced 4% inhibition (10 μM test compound).

Under “1 μM test compound”, `COc1ccccc1-c1ncnc(Nc2cccc(CS(N)(=O)=O)c2)n1` [Compound No. 2, 1-(3-{[4-(2-methoxyphenyl)-1,3,5-triazin-2-yl]amino}phenyl)methanesulfonamide] displayed an inhibition at 1 µM above 1%. In addition, at 3 µM the inhibition (3 μM test compound) was 6%. Further, the inhibition at 10 µM (10 μM test compound) came to 15%.

On to `NS(=O)(=O)Cc1cccc(Nc2ncnc(-c3ccccc3OCc3ccccc3)n2)c1` [Compound No. 4b, 1-[3-({4-[2-(benzyloxy)phenyl]-1,3,5-triazin-2-yl}amino)phenyl]methanesulfonamide], for which the “RAN translation inhibitory activity %” value was 11% (1 μM test compound), 17% (3 μM test compound) and 17% (10 μM test compound).

Take `CS(=N)(=O)Cc1cccc(Nc2ncnc(-c3ccccc3OCc3ccc(Cl)c(Cl)c3)n2)c1` (centres unmarked) [Compound No. 5, 4-{2-[(3,4-dichlorophenyl)methoxy]phenyl}-N-{3-[(S-methanesulfonimidoyl)methyl]phenyl}-1,3,5-triazin-2-amine]: the inhibition at 1 µM (1 μM test compound) was 19%. This compound also came in with an inhibition at 3 µM (3 μM test compound) of 16%. Also, the inhibition at 10 µM (10 μM test compound) stood at 21%.

Turning to `NS(=O)(=O)Cc1cccc(Nc2ncnc(-c3ccccc3OCc3ccccc3)n2)c1.O=C(O)C(F)(F)F` [Compound No. 4a, 1-[3-({4-[2-(benzyloxy)phenyl]-1,3,5-triazin-2-yl}amino)phenyl]methanesulfonamide trifluoroacetate], the “RAN translation inhibitory activity %” value worked out at 5% (1 μM test compound) and 3% (10 μM test compound). This compound also showed an inhibition at 3 µM (3 μM test compound) of 11%.

`COc1cc(F)ccc1-c1ncnc(Nc2cccc(CS(C)(=N)=O)c2)n1` (centres unmarked) [Compound No. 1, 4-(4-fluoro-2-methoxyphenyl)-N-{3-[(S-methanesulfonimidoyl)methyl]phenyl}-1,3,5-triazin-2-amine]: for the setting “1 μM test compound”, the inhibition at 1 µM was 1%. Further, testing at 3 µM (3 μM test compound) gave an inhibition of 19%. Where the note is “10 μM test compound”, this compound had an inhibition at 10 µM of 18%.

As for `CCOC(=O)N=S(C)(=O)Cc1cccc(Nc2ncnc(-c3cccc4c3OCC4)n2)c1` (centres unmarked) [Compound No. 7, ethyl {[(3-{[4-(2,3-dihydro-1-benzofuran-7-yl)-1,3,5-triazin-2-yl]amino}phenyl)methyl](methyl)oxo-λ^6-sulfanylidene}carbamate], the inhibition at 1 µM (1 μM test compound) was found to be 4%. Further, where the note is “3 μM test compound”, the inhibition at 3 µM is 19%. Moreover, 10 µM produced 17% inhibition (10 μM test compound).

Regarding `CCOC(=O)N=S(C)(=O)Cc1cccc(Nc2ncnc(-c3cccc4c3OCCO4)n2)c1` (centres unmarked) [Compound No. 6, ethyl {[(3-{[4-(2,3-dihydro-1,4-benzodioxin-5-yl)-1,3,5-triazin-2-yl]amino}phenyl)methyl](methyl)oxo-λ^6-sulfanylidene}carbamate], 1 µM produced 16% inhibition (1 μM test compound). This compound also returned an inhibition at 10 µM (10 μM test compound) of 21%.
